# Values of other authors as cited in patent US20250032516A1, “COMPOSITIONS AND METHODS FOR TREATING EPILEPSY” (POVIVA CORP, priority 2023, published 2025).
# Like-named read-outs stand apart in the source and are kept apart here.
# Conditions: children with Dravet syndrome
structure (smiles),measurement,setting,value
"C=C(C)[C@@H]1CCC(C)=C[C@H]1c1c(O)cc(CCCCC)cc1O [Cannabidiol, 2-[(1R,6R)-6-Isopropenyl-3-methylcyclohex-2-en-1-yl]-5-pentylbenzene-1,3-diol]","Plasma concentration on Day 1 at starting CBD dose, 5 hours, Mean (SD)",5 mg/kg/day group (N = 10),10.0 (5.74) ng/mL
same,"Plasma concentration on Day 1 at starting CBD dose, […], Mean (SD)",5 mg/kg/day group (N = 10),37.6 (53.7) ng/mL
same,"Plasma concentration on Day 1 at starting CBD dose, 5 hours, Mean (SD)",10 mg/kg/day group (N = 8),11.3 (11.7) ng/mL
same,"Plasma concentration on Day 1 at starting CBD dose, […], Mean (SD)",10 mg/kg/day group (N = 8),34.4 (32.1) ng/mL
same,"Plasma concentration on Day 1 at starting CBD dose, 5 hours, Mean (SD)",20 mg/kg/day group (N = 9),25.3 (42.4) ng/mL
same,"Plasma concentration on Day 1 at starting CBD dose, […], Mean (SD)",20 mg/kg/day group (N = 9),29.3 (28.5) ng/mL
